Measurements published in patent publication US12252423B2, “Biodegradation of fluorochemicals” (The Trustees of Princeton University, priority 2018, dated 2025).
“Also recorded” adds a separate entry of the source.

System: pure and enrichment cultures
Assay: Toxicity experiments: effect of PFAS on biomass over a 14-day incubation
Type: cell-based, Acidimicrobiaceae sp. A6 / Terrimonas sp. A8
Details: for toxicity / effects on the overall bacterial numbers: 1 ppb, 10 ppb, 100 ppb and 1 ppm, 14 days incubation, pure and enrichment cultures; for biomass growth: 1 ppm, pure culture incubations, 14 days
Protocol: Toxicity experiments were conducted for both pure and enrichment cultures with selected PFAS Compounds. The concentrations to test were 1 ppb, 10 ppb, 100 ppb and 1 ppm. During 14 days incubation, no toxicity of Heptafluorobutyric acid (HFBA), Perfluorooctanoic acid (PFOA) was evidenced by cultures with these concentrations.
All Incubations were conducted in 20-ml serum vials with a pure strain A6 (Acidimicrobiaceae sp.)/A8 (Terrimonas sp.) or an enrichment culture, which contained 40.1-48.5% of Acidimicrobiaceae sp. A6, and in the anoxic inorganic Fe(III)-NH4^+ enrichment medium. The composition of the inorganic Fe(III)-NH4^+ enrichment medium (pH 4.5-5.0) consisted of 504 mg/L 2-line ferrihydrite [Fe2O3·0.5H2O], 177 mg/l NH4Cl, 77.9 mg/L (NH4)2SO4, 19.8 mg/L NaHCO3, 71.0 mg/L KHCO3, 9.00 mg/L KH2PO4, 100 mg/L MgSO4·7H2O, and 60.0 mg/L CaCl2·2H2O, in addition to 1 ml/L of a trace element solution, and 1 ml/L of a vitamin solution (ATCC® MD-VS™). An electron shuttling compound, 9,10-Anthraquinone-2,7-disulphonic acid (AQDS), was added to the pure strain A6 with a final concentration as 0.05 mg/L. To achieve strictly anoxic conditions, the headspace of each incubation vial was vacuumed until no bubble formation was observed and then flushed with a N2/CO2 (80:20) gas mixture, which was repeated 3 times. Then, for the PFAS degradation experiment, an equal volume of either HFBA, PFOA and PFBS was added to each group of vials, to yield final concentrations to 100 ppb. In the control group, autoclave control, without PFASs and without addition of NH4^+ were prepared. All These vials were placed on a shaker (100 rpm) in an anaerobic glove box for 14-day incubations at ambient temperature. Duplicate samples were collected destructively every week for Fe(II), NH4^+, and HFBA/PFOA/PFBS analyses.
Toxicity experiments, in terms of how each of these PFAS affects the biomass over a 14-day incubation, were conducted for both pure and enrichment cultures. The concentrations tested were 1 ppb, 10 ppb, 100 ppb and 1 ppm. During 14 days of incubation, no effects by Heptafluorobutyric acid (HFBA) and Perfluorooctanoic acid (PFOA) on the overall bacterial numbers were detected for these concentrations. However, the biomass growth was inhibited when the concentration of 2,2,2-Trifluoroethyl Nonafluorobutanesulfonate was 1 ppm in the incubation with the pure culture.

SMILES | toxicity / effects on the overall bacterial numbers | biomass growth | biomass growth (listed as 2,2,2-Trifluoroethyl Nonafluorobutanesulfonate)
O=C(O)C(F)(F)C(F)(F)C(F)(F)C(F)(F)C(F)(F)C(F)(F)C(F)(F)F [PFOA, Perfluorooctanoic acid] | no toxicity; also recorded: no effects |  | 
O=C(O)C(F)(F)C(F)(F)C(F)(F)F [HFBA, Heptafluorobutyric acid] | no toxicity; also recorded: no effects |  | 
O=S(=O)(OCC(F)(F)F)C(F)(F)C(F)(F)C(F)(F)C(F)(F)F [PFBS, 2,2,2-Trifluoroethyl Nonafluorobutanesulfonate] |  | slightly inhibited | inhibited
